The text below walks through data of US20230310390A1, “INHIBITORS OF SHORT-CHAIN DEHYDROGENASE ACTIVITY FOR TREATING NEURODEGENERATION” (CASE WESTERN RESERVE UNIVERSITY, priority 2020, published 2023).

Where two headings read alike, the source gives them in different places.

The conditions of series [1]: cited from earlier work.
Series [2] deals with C57/B6 mice exposed to TBI. Nature of the series: Silver staining for axon degeneration after TBI. The note with it: 3 weeks after TBI, 5 mg/kg twice daily started 24 hours after injury; 5 mg/kg. The class given is in vivo. On the procedure: 8 week old C57/B6 mice were exposed to sham-injury or TBI. Twice daily treatment with 5 mg/kg (+)-SW033291, 5 mg/kg (−)-SW033291, or vehicle was started 24 hours after injury and continued throughout the duration of the experiment. Animals were sacrificed by transcardial perfusion 3 weeks after TBI or sham-injury, and fixed brains were processed for silver staining. […] Individual mouse data points are shown on the graph. Data was analyzed using two-way repeated measures ANOVA; * p<0.05, ** p<0.01. All data is mean±SEM.

In another series the test system is neurons. The note with it: in vitro, activation of the EP2 receptors; cited from earlier work.

Regarding `CCCCC[C@H](O)/C=C/[C@H]1[C@H](O)CC(=O)[C@@H]1C/C=C\CCCC(=O)O` [PGE2, prostaglandin E2], the half-life result is recorded as “less than 1 min” in series [1] (following intravenous injection) and “approximately 30 sec” in series [1] (in the circulatory system).
On to `CCCC[S+]([O-])c1sc2nc(-c3cccs3)cc(-c3ccccc3)c2c1N` (single isomer, unassigned; (-)) [(−)-SW033291, reference compound], for which the “silver staining (axon degeneration)” value in series [2] is given as “protection was not noted”.
For `CCCC1([C@H](O)C/C=C/[C@H]2[C@H](O)CC(=O)[C@@H]2CCCCCCC(=O)OC)CCC1` [butaprost], the “protection of neurons from amyloid peptide neurotoxicity” value in the series with neurons is listed as “protected neurons from amyloid 0-peptide neurotoxicity in vitro”.
